Measured values taken from PMC6459484, “Synthetic surfactin analogues have improved anti-PEDV properties” (PLoS ONE, 2019).
≈ marks a conversion by molar mass, not a printed value. Entries after “also recorded” stand apart in the source; their conditions may differ. Square brackets hold non-standard residues; d marks the D form. Peptide text beside a SMILES is read from it. * marks the point of attachment. X1 = CCCCCCCc1ccc(-c2ccc(C(=O)*)cc2)cc1; Palmitoyl = CCCCCCCCCCCCCCCC(=O)*

Assays:
PEDV = experiment: Time of addition assay (viral N protein by western blot, viral RNA by qRT-PCR); assay type: cell-based, Porcine epidemic diarrhea virus; details: Vero cells, 1000 PFU PEDV, harvested 12 hpi, SLP5 50 μg/ml, surfactin 20 μg/ml; for PEDV replication (nucleic acid and protein levels), reagent present throughout the experiment (treatment group 2) or at any stage: DEPE 5 μg/ml, 3 independent experiments
Procedure: Time of addition assay was performed according to the procedures described, with modifications. Confluent Vero cells in 12-well plates were infected with 1000 PFU of PEDV and incubated for 1 hr at 4 °C to synchronize infection. The inoculum was removed and 1 mL of 37 °C DMEM was added to each well, cells were then placed at 37 °C in a humidified incubator. At the indicated time points, SLP5, surfactin, or dielaidoyl-phosphatidylethanolamine (DEPE, AvantiPolarLipids, Alabaster, AL) was added dropwise to cells or virus to a final concentration of 50 μg/ml, 20 μg/ml, or 5 μg/ml and incubated a further 12 hours at 37 °C. Viral nucleic acid and protein levels in the cells were measured by qRT-PCR and western-blot respectively. The data shown is representative of 3 independent experiments.
Total RNA was extracted from cells using TRIzol Reagent (Invitrogen) according to the manufacturer’s instructions. cDNA was generated by reverse transcription using HiScript TM QRT SuperMix for qPCR (Vazyme) according to the manufacturer’s instructions. PEDV nucleic acid levels were assessed by measuring the viral nucleoprotein (N) using qRT-PCR with the TaKaRa SYBR Green qPCR Kit (TaKaRa). Primer sequences were as follows: PEDV-N-F (sense), 5’-[…]-3’; PEDV-N-R (antisense), 5’-[…]-3’; C-sabaeus-GAPDH-F, 5’-[…]-3’; C-sabaeus-GAPDH-R, 5’-[…]-3’. Gene level was calculated using the comparative Ct method and normalized to the endogenous levels of GAPDH.
Boiled cell lysates were subjected to SDS-PAGE then transferred to PVDF membrane (Roche, Basel, Switzerland) using a semi-dry transfer apparatus (GE, Little Chalfont, Buckinghamshire, UK). Membranes were blocked in 5% non-fat milk in TBS containing 0.01% Tween-20 (TBST) then incubated overnight at 4 °C with anti-PEDV N-protein monoclonal antibody (Median Diagnostics, South Korea) diluted in TBST with 1% BSA. Membranes were washed 30 min in TBST followed by incubation for 1 h at RT with 1:5000 HRP goat anti-mouse IgG antibody (ABGENT, San Diego, CA, USA) then thrice washed for 15 min in TBST. Membranes were incubated with ECL reagent (Thermo, Waltham, MA, USA) and imaged using a ChemiDoc™ system (Bio-Rad, Hercules, CA, USA).
Since SLP5 was the most promising surfactin analogue, we chose it for further study. Time of addition assays were performed to determine whether the SLP5 exerts its anti-PEDV effect at the same stage during infection as surfactin. Since surfactin acts directly on virions, the experiment was designed to examine events early in the infection process. Fig 6A summarizes the experimental plan and the eight treatments tested. Briefly, SLP5, surfactin, or DEPE was added to virus alone, cells alone, or to cells and virus together prior to infection, during virus adsorption, during virus invasion (1 h post infection at 37 °C), or during replication (1–12 hpi). Samples were harvested 12 hours after infection, and analyzed to measure cellular levels of viral protein (Fig 6B and 6C) and viral RNA (Fig 6D). […] Other antiviral mechanisms of SLP5 and surfactin cannot be ruled out since PEDV replication is inhibited to different degrees in some of the other treatment groups.
Fig 6 Time-of-addition experiments. (A) Vero cells were treated with SLP5, surfactin, or DEPE at different time points before, during, and after infection. […] (B) The PEDV nucleoprotein was detected by Western-blot, and (C) quantitated by band intensity relative to the internal control, GAPDH. (D) The PEDV genome was detected by qRT-PCR. […]

[1] = Critical micelle concentration by surface tension (ring method); assay type: physicochemical; details: samples stood 30 min at 22 °C, intersection of two linear regression lines
Procedure: Surface tensions were measured using the ring method. Samples were freshly prepared in a testing flask and allowed to stand for 30 minutes at 22 °C. Surface tension measurements were made using a surface tensiometer (HLD-LST-II, HENLIDA Co., Ltd, China). Linear regressions of the drop and the flat area were performed separately for the surface tension-concentration curve. The concentration at the intersection of the two lines is the critical micelle concentration (CMC).
The CMC was calculated by measuring the surface tension of each SLP over a range of concentrations. […] Linear regressions were performed independently using the data on the descending part of the curve below the CMC and the equilibrium part above the CMC. The intersection of the linear regression lines corresponds to the CMC (Table 3).
Fig 4 Critical micelle concentrations of the SLPs. CMCs were determined for SDS, surfactin, and SLPs by surface tension. The intersection of the two linear regression lines corresponds to the CMC value, (shown by the dotted lines).

PEDV CV777 = experiment: Plaque reduction assay (anti-PEDV activity); assay type: cell-based, Porcine epidemic diarrhea virus; details: for Antiviral potency relative to SLP3: anti-PEDV plaque reduction, compared with SLP3; for Anti-PEDV potency compared with surfactin: plaque reduction assay, result in words
Procedure: Cercopithecus aethiops kidney epithelial cells (Vero, ATCC, CCL-81) were cultured in high glucose DMEM (Gibco, US), supplemented with 10% fetal bovine serum (FBS, GIBCO), at 37 °C in a 5% CO2 humidified atmosphere. Cells were routinely seeded at a density of 2×10^5 /mL in plastic tissue culture flasks (25 cm^2 flasks, Corning, USA) and passaged every 3–4 days. PEDV CV777 was provided by the Jiangsu Academy of Agricultural Sciences (JAAS).
Vero cells were seeded at 2 × 10^5 cells/well in 24-well tissue culture plates and incubated 18–24 h at 37 °C until approximately 95% confluency was reached. 100 PFU of PEDV mixed with an equal volume of SLP in DMEM or DMEM alone were incubated 10 minutes at 37 °C, then added into the wells of the Vero cells and incubated 30 minutes at 4 °C. Cells were washed 3 times with DMEM then overlaid with DMEM/1% agar and incubated 72 hours at 37 °C. The cells were fixed with 4% formaldehyde, then stained with 0.1% crystal violet after the agar overlay was removed. The data are representative of 3 biological replicates and each plaque assay was performed in triplicate and values are expressed as means ± the standard deviation. Curve fitting and EC50 were calculated with GraphPad Prism 6 using the log[inhibitor] vs. response equation.
The SLPs were tested for anti-PEDV activity using a plaque reduction assay. Serial dilutions of SLPs were incubated with an equal volume of PEDV then aliquoted onto precooled cells in 12-well plates. After the virus has adsorbed to the cells at 4 °C, SLPs were washed away. The adsorbed virus particles were then counted by plaque forming assays (Fig 2A). The results were fitted to a sigmoid-curve and plotted Fig 2B. All SLPs have potent anti-PEDV effects above 50 μg/ml, but differences in their anti-PEDV effect.
Fig 2 Anti-PEDV activities of lipopeptides. (A) PEDV was incubated with series concentrations of SLPs for 10 minutes at 37 °C. After washing cells of unadsorbed virus, the remaining infectious particles was detected by plaque assay. (B) Anti-PEDV activity (% remaining PFU) plotted as a function of lipopeptide concentration. The results of three independent experiments are shown as means ± standard deviation. 100% represents plaque counts in the control (no lipopeptide) sample.

porcine RBCs = assay type: cell-based; details: for CC50 (50% cytotoxicity concentration, hemolysis): red cells of porcine, 1 h
Procedure: Hemolytic activity was measured according to the methods described in Jingdan, with some modifications. Briefly, serial dilutions of SLPs were added to 200 uL of a 1% suspension of porcine RBCs in PBS, followed by incubation for 1 h at 37 °C. Cells were centrifuged at 1000 g for 10 min, then 100 uL of each supernatant was transferred to wells of a 96-well plate. The optical density at 540 nm was measured using a microplate reader (Infinite 200 PRO, Tecan Group Ltd., Switzerland) and % hemolysis was calculated using the formula: Hemolysis(%)=ODS-ODB/ODP-ODB×100% where ODS, ODB, and ODP represent the optical density of the SLP-treated samples, negative control and positive control, respectively. 1% Triton X-100 was used for the positive control. Each sample was run in triplicate.
Fig 3 Hemolytic activity of lipopeptides. (A) The indicated concentration of SLPs were added to a 1% porcine RBC suspension in PBS, followed by incubation for 1 h at 37 °C and centrifugation. Pictures were taken after collecting a portion of the supernatant for quantification of hemolysis. (B) Hemolytic curve. Hemolysis (measured at OD540) is shown as a function of SLP concentration. 100% represents the OD obtained using 0.1% Triton X-100-treated red blood cells.

[2] = 100 PFU PEDV pre-incubated with lipopeptide 10 min at 37 °C, adsorbed to Vero cells 30 min at 4 °C, washed, agar overlay 72 h, 3 biological replicates each in triplicate, mean ± SD, log[inhibitor] vs. response fit

SMILES	PEDV replication (nucleic acid and protein levels), reagent present throughout the experiment (treatment group 2) or at any stage (PEDV)	CMC [1] [µg/mL]	EC50 (PEDV CV777; 72 h) [µg/mL]	Antiviral potency relative to SLP3 (PEDV CV777)	Anti-PEDV potency compared with surfactin (PEDV CV777)	CC50 (50% cytotoxicity concentration, hemolysis) (porcine RBCs) [µg/mL]	PEDV replication, treatment group 5 (PEDV; same as group 2 (little replication))	Hemolytic activity, result in words (porcine RBCs)	EC50 (PEDV CV777; [2]) [µg/mL]
CCCCCCCC/C=C/CCCCCCCC(=O)OC[C@H](COP(=O)(O)OCCN)OC(=O)CCCCCCC/C=C/CCCCCCCC [DEPE, dielaidoyl-phosphatidylethanolamine]	did not affect PEDV replication at any stage								
CCCCCCCCCCCCOS(=O)(=O)[O-].[Na+] [SDS, reference compound]		296							
CCCCCCCCCCCCCCCC(=O)N[C@@H](CCC(=O)O)C(=O)N[C@H](C(=O)N[C@H](CC(C)C)C(=O)N[C@H](CC(C)C)C(N)=O)C(C)C [SLP4] (Palmitoyl-EV[dL][dL]-NH2)		10.6	5.4 ± 0.4 (≈ 7.61 µM)	about 3 fold	higher potency than surfactin	12.9 ± 0.2 (≈ 18.2 µM)			
CCCCCCCCCCCCCCCC(=O)N[C@@H](CCC(=O)O)C(=O)N[C@H](C(=O)N[C@H](CC(C)C)C(=O)N[C@@H](CC(=O)O)C(=O)N[C@H](CC(C)C)C(=O)O)C(C)C [SLP5] (Palmitoyl-EV[dL]D[dL]-OH)	little PEDV replication occurs	15.0	16.5 ± 0.6 (≈ 20 µM)		equaled	847.2 ± 124.9 (≈ 1030 µM)	act directly on the virus		
CCCCCCCCCCCCCCCC(=O)N[C@@H](CCCCN)C(=O)N[C@H](C(=O)N[C@H](CC(C)C)C(=O)N[C@@H](CCCCN)C(=O)N[C@H](CC(C)C)C(N)=O)C(C)C [SLP6] (Palmitoyl-KV[dL]K[dL]-NH2)		22.4	6.1 ± 0.3 (≈ 7.29 µM)		higher potency than surfactin	12.6 ± 0.4 (≈ 15 µM)		strongest hemolytic activity	
CCCCCCCCCCCCCCCC(=O)N[C@@H](CCC(=O)O)C(=O)N[C@H](C(=O)N[C@@H](CC(C)C)C(=O)N[C@@H](CC(=O)O)C(=O)N[C@@H](CC(C)C)C(N)=O)C(C)C [SLP7] (Palmitoyl-EVLDL-NH2)		17.1				274.1 ± 21.0 (≈ 332 µM)			14.0 ± 0.6 (≈ 17 µM)
CCCCCCCCCCCCCCCC(=O)N[C@@H](CCC(=O)O)C(=O)N[C@H](C(=O)N[C@H](CC(C)C)C(=O)N[C@H](CC(C)C)C(=O)N[C@@H](CC(=O)O)C(N)=O)C(C)C [SLP8] (Palmitoyl-EV[dL][dL]D-NH2)		20.2	2.6 ± 0.2 (≈ 3.15 µM)	6.5 fold	higher potency than surfactin; also recorded: exceeded	217.5 ± 18.9 (≈ 264 µM)		low hemolytic activity	
CCCCCCCCCCCCCCCC(=O)N[C@@H](CCC(=O)O)C(=O)N[C@@H](CC(=O)O)C(=O)N[C@H](C(=O)N[C@H](CC(C)C)C(=O)N[C@H](CC(C)C)C(N)=O)C(C)C [SLP9] (Palmitoyl-EDV[dL][dL]-NH2)		9.4				52.2 ± 2.0 (≈ 63.3 µM)			12.8 ± 0.5 (≈ 15.5 µM)
CCCCCCCc1ccc(-c2ccc(C(=O)N[C@@H](CCC(=O)O)C(=O)N[C@H](C(=O)N[C@H](CC(C)C)C(=O)N[C@@H](CC(=O)O)C(=O)N[C@H](CC(C)C)C(N)=O)C(C)C)cc2)cc1 [SLP10] (X1-EV[dL]D[dL]-NH2)						82.8 ± 3.4 (≈ 95.7 µM)			10.6 ± 0.5 (≈ 12.3 µM)
